Assay results reported in patent US20050281904A1, “Kefir extract as an anti-cancer agent” (McGill University, priority 2000, published 2005).

Assays:
[1] = test system: MCF-7 cells; assay: Cell proliferation experiments, MCF-7 cells (cell numbers after 8 days); format: cell-based, human; settings: for antiproliferative effect on MCF-7 cells (dose effect): HPLC fractions or ceramide compounds alone
Experimental: MCF7-E3 human breast cancer estrogen-sensitive cells were provided by Dr. D. Desaulniers of Health Canada, Ottawa. Cells were routinely propagated as a monolayer culture in Dulbcco's Modified Eale Medium (DMEM) supplemented with 10% heat-inactivated fetal bovine serum (FBS), in 75-cm^2 plastic dish at 37° C. in a humidified atmosphere with 5% CO2, and passage 3-4 days a time. A normal human mammary epithelial cell line was provided by Dr. M. Stampfer of UC Livermore Labs. Cells were routinely propagated as a monolayer culture in Mammary Epithelial Growth Media (MEGM, Clonetics, San Diego) supplemented with 10% heat-inactivated fetal bovine serum (FBS), in 75-cm^2 plastic dish at 37° C. in a humidified atmosphere with 5% CO2, and passage every week. For the experiments, both cells were harvest from the dish using 0.25% trypsin-EDTA solution.
Four kefir products (K1-K4) collected at various stages of kefir production at Liberty Brand Products, Inc. (Montreal, Canada) were used in this study. The large-scale production of kefir involves a two-step fermentation process. The first step is to prepare the cultures by incubating milk with kefir grains (2-10%) (K1) and fermented for 24 hrs. The grains are then removed by filtration and the resulting mother culture (K2) is added to pasteurized milk (K3), which is further fermented for 12 hrs and this final product (K4) is packaged for the consumer market. A pasteurized milk sample (M1) and two yogurt products; mixture of yogurt bacteria, pasteurized milk and milk powder (Y1) and the final yogurt product after 12 hrs of fermentation (Y2) were included for comparison. The yeast and bacteria in the samples were removed by centrifugation and filtration. About 35 ml each of the seven samples was centrifuged (32,000×g, 60 min, 4° C.) and the supernatant was filtered through a 0.45 μm Millipore filter followed by a 0.2 μm Millipore filter (Millipore Corporation, Bedford, USA). Extracts from two separate batches of kefir and yogurt were used.
Cells previously harvested were seeded in 24-well plates; 10,000 cells for MCF-7 per well in DMEM supplemented with 10% FBS and 5,000 cells for HMEC per well in MEGM supplemented with 10% FBS. The cells were allowed to attach for 24 hours. […] Cells were incubated at 37° C. in a humidified atmosphere with 5% CO2 for 8 days and the cell numbers in each well were counted using a Coulter Counter (Coulter Counter Corporation, USA). […]
The cell numbers expressed as percentage of control from different treatments and dose were compared using two-way ANOVA. When the interaction between treatments and dose was also significant the difference between treatment groups was determined by Tukey's HSD multiple comparison test. […]

[2] = test system: MCF-7 cells; settings: 1 μM; cited from earlier work

Compound	antiproliferative effect on MCF-7 cells (dose effect) [1]	levels of angiogenesis stimulators VEGF and cathepsin D [2]	dosage showing antiproliferative effect on MCF-7 cells [1]
CCCCCCCCCCCCC/C=C/[C@@H](O)[C@H](CO)NC(=O)CCCCC [C6 ceramide]	strong dose dependent antiproliferative effect	below 50 % of the control	
CC/C(=C(\c1ccccc1)c1ccc(OCCN(C)C)cc1)c1ccccc1 [Tamoxifen]			above 0.2 μM/L
ceramide 1-phosphate	did not		
ceramide I	strong dose dependent antiproliferative effect		
